Measured values: patent publication US20070248646A1, “Use of azurocidin inhibitors in prevention and treatment of ocular vascular leakage” (priority 2006, published 2007)

Experiments:
[1] = tested on: VEGF-induced retinal leukostasis; test: Concanavalin A ex vivo retinal leukostasis quantification, VEGF-induced; assay type: in vivo, Brown Norway rats
Method: (§1) This study employed Brown Norway rats, AZ (1 μg, 10 μg, 20 μg), PBS, aprotinin, VEGF164, and polyclonal anti-AZ antibody (1 μg). Briefly, Brown Norway rats received intravitreal injections of AZ (1 μg, 10 μg and 20 μg) in one eye and PBS in the contralateral eye. BRB breakdown was quantified using the Evans Blue (EB) technique at 1 hour, 3 hours, and 24 hours after intravitreal injection of AZ or PBS. To assess whether AZ induced retinal leukostasis, firm leukocyte adhesion was quantified at 3 hours and 24 hours post AZ injection (10 μg) using the ex vivo conconavalin leukostasis assay. To block AZ, rats were treated with a single intravenous injection of aprotinin (30,000KIU), prior to the intravitreal injections. To investigate whether AZ was involved in VEGF-induced BRB breakdown, rats received intravitreal injections of 50 ng recombinant mouse VEGF164 in one eye and PBS in the other eye and were treated intravenously with aprotinin (50,000KIU every eight hours) or polyclonal anti-AZ antibody (1 μg). BRB breakdown and retinal leukostasis were quantified 24 hours after VEGF injection.
Deep anesthesia was induced with xylazine and ketamine as above. The chest cavity was carefully opened and the left ventricle was entered with a 14-gauge perfusion cannula fixed to a vessel clamp; care was taken to avoid ventricular obstruction. The right atrium was opened with a 12-gauge needle to achieve outflow. With the heart providing the motive force, 250 ml/kg PBS (roughly 30 ml of PBS quickly) was perfused to clear erythrocytes and non-sticking leukocytes, followed by perfusion with FITC-coupled Concanavalin A lectin (20 μg/ml in PBS, pH 7.4, total concentration 5 mg/kg) (Vector Labs, Burlingame, Calif.). The latter stained adherent leukocytes and the vascular endothelium. Lectin staining was followed by PBS perfusion (30 ml quickly).
The retinas were flat-mounted in a water-based fluorescence-anti-fading medium (Southern Biotechnology, Birmingham, Ala.) and imaged via fluorescence microscopy (Leica upright microscope, Hamamatsu digital high sensitivity camera, openlab imaging software). The total number of adherent leukocytes per retina was counted in a masked fashion.

[2] = tested on: isolated leukocytes; conditions: VEGF 5-500 ng/ml, 20 minutes
Method: Additionally, in vitro it is investigated whether VEGF can cause the release of AZ from isolated leukocytes. The supernatant of VEGF-treated leukocytes is used to detect AZ using a Western Blot. Briefly, 10-20 ml of human blood is obtained by phlebotomy from healthy volunteers of both genders and all age groups. Leukocyte subtypes (i.e., neutrophils) are isolated using a percoll gradient technique. Then, 1-2×10^6 leukocytes are incubated for 20 minutes at room temperature with different concentrations (5-500 ng/ml) of human VEGF isoforms (121, 165, and 189) in a total volume of 200-300 μl of 1% FBS-containing PBS. Samples are then centrifuged at 1,500 rpm for 10 minutes, and 150-200 μl of the supernatant is collected for AZ-detection using the Western Blot technique with a commercially available antibody against human AZ (R&D systems).

[3] = tested on: murine brain microvascular endothelial cells (bEND3); test: Transendothelial electrical resistance (TEER), in vitro model of the BBB; assay type: cell-based; conditions: AZ 25 μg/ml, VEGF 100 ng/ml
Method: The purpose of this experiment was to investigate the direct effects of VEGF and/or AZ on the BBB. This study used an in vitro model of the BBB in which transendothelial electrical resistance (TEER) in barrier-privileged murine brain microvascular endothelial cells (bEND3) was measured. The results provide support that the direct effects of VEGF and AZ on the endothelium of the BBB, although related, may be distinct.
Murine brain microvascular endothelial cells (bEND3) were grown on 0.4 μm fibronectin-coated inserts in 24-well plates (BD Bioscience, San Jose, Calif.). After the cells reached confluency, the cells were stimulated with AZ (AZ, 25 μg/ml), VEGF (100 ng/ml) or both. Electrical resistance was measured at the indicated time-points after the treatment by using a volt-ohmmeter (EVOM, World Precision Instruments, Sarasota, Fla.) with the electrode reproducibly positioned in each well. Transendothelial electrical resistance (TEER) values for each Transwell were calculated by subtracting the electrical resistance of the blank wells (coated filters without cells) prepared and treated as the experimental samples. All experiments were carried out in quadruplicate. The results were expressed as Mean±SEM from n=4 independent experiments.

[4] = tested on: VEGF-induced blood retinal barrier breakdown; test: VEGF-induced blood retinal barrier breakdown (Evans Blue); assay type: in vivo, Brown Norway rats; conditions: 24 hours after intravitreal 50 ng VEGF
Method: as §1
Rats received intravitreous injections of 5 μl of sterile phosphate-buffered saline (PBS) containing 50 ng VEGF164 (R&D Systems, Minneapolis, Minn.) in one eye and 5 μl of sterile phosphate-buffered saline (PBS) in the contralateral eye. The retinas were analyzed for leakage 24 hours after VEGF injection.
In a second group, the rats were additionally treated intravenously with aprotinin (Trasylol®, Bayer Pharmaceuticals). 50,000KIU of aprotinin (5 ml of Trasylol®) was administered intravenously through the tail vein 1 hour before, as well as 8 hours and 16 hours after, the intravitreal injection of VEGF. The retinas were analyzed 24 hours after VEGF administration.
In a third group, rats were treated with intravitreous injections of 1 μg of goat anti-human azurocidin polyclonal antibody (5 μl of a 200 μg/ml antibody solution, Santa Cruz biotechnology) or control goat isotype IgG (R&D system) in the VEGF injected eye 6 hours after VEGF administration.
Retinal vascular permeability was quantified as previously described (Qaum et al. (2002) supra, Xu et al. (2001) INVEST. OPHTHALMOL. VIS. SCI. 42; 789-94). After the animals were deeply anesthetized, Evans blue dye (Sigma) dissolved in normal saline (30 mg/ml) was injected through the tail vein over 10 seconds at a dosage of 45 mg/kg. Blood samples were obtained from the left ventricle, just before perfusion at 2 hours, to obtain the time-average Evans blue dye plasma concentration. These blood samples were centrifuged at 12,000 rpm for 15 minutes and diluted to 1/10,000th of their initial concentration in formamide (Sigma). The background-subtracted absorbance was determined by measuring each sample at 620 nm (the absorbance maximum for Evans blue dye in formamide) and 740 nm (the absorbance minimum) with a spectrophotometer. The concentration of dye in the plasma was calculated from a standard curve of Evans blue dye in formamide. After the dye had circulated for 2 hours, the chest cavity was opened, and the rats were perfused through the left ventricle with 1% paraformaldehyde in citrate buffer (0.05 M, pH 3.5) at a physiological pressure of 120 mm Hg. The retinas were then carefully dissected under an operating microscope. After measurement of the retinal weight, Evans blue dye was extracted by incubating each retina in 0.180 ml of formamide for 18 hours at 70° C. The extract was ultracentrifuged at a speed of 14,000 rpm for 60 minutes at 25° C. Sixty microliters of the supernatant was used for spectrophotometric measurement at 620 nm and 740 nm. The background-subtracted absorbance was determined by measuring each sample at 620 nm (the absorbance maximum for Evans blue dye in formamide) and 740 nm (the absorbance minimum). The concentration of dye in the extracts was calculated from a standard curve of Evans blue dye in formamide. […]

[5] = tested on: retinal vascular permeability; test: Qualitative evaluation of retinal vascular permeability with 20-kDa FITC conjugated dextran; assay type: in vivo, Brown Norway rats; conditions: flat-mount retinas, VEGF-injected eyes with or without aprotinin
Method: Retinal vascular permeability was documented in a histological manner by intravenous injection of 20-kDa FITC conjugated dextran (50 mg/Kg, Sigma Aldrich). Rats were sacrificed 30 minutes later with intracardiac perfusion of 4% paraformaldehyde to fix the dextran conjugate in the tissues. The retinas were carefully dissected and flat mounted in anti-fading medium (Vector Laboratories). Flat-mount retinas were examined by fluorescent microscopy. Digital color enhancement (green) was equally applied to all images for improved visualization of fluorescence.

[6] = tested on: retinal vascular permeability (blood retina barrier); test: Evans Blue BRB breakdown after intravitreal azurocidin; assay type: in vivo, Brown Norway rats; conditions: intravitreal 20 μg
Method: as §1
Rats received intravitreous injections of 5 μl of sterile phosphate-buffered saline (PBS) containing 20 μg human neutrophil azurocidin (Athens Research and Biotechology, Atlanta, Ga.) in one eye and 5 μl of sterile phosphate-buffered saline (PBS) in the contralateral eye. The retinas were analyzed 45 minutes, 3 hours, and 24 hours after azurocidin injection.
Retinal vascular permeability was quantified as previously described (Qaum et al. (2002) supra, Xu et al. (2001) INVEST. OPHTHALMOL. VIS. SCI. 42; 789-94). After the animals were deeply anesthetized, Evans blue dye (Sigma) dissolved in normal saline (30 mg/ml) was injected through the tail vein over 10 seconds at a dosage of 45 mg/kg. Blood samples were obtained from the left ventricle, just before perfusion at 2 hours, to obtain the time-average Evans blue dye plasma concentration. These blood samples were centrifuged at 12,000 rpm for 15 minutes and diluted to 1/10,000th of their initial concentration in formamide (Sigma). The background-subtracted absorbance was determined by measuring each sample at 620 nm (the absorbance maximum for Evans blue dye in formamide) and 740 nm (the absorbance minimum) with a spectrophotometer. The concentration of dye in the plasma was calculated from a standard curve of Evans blue dye in formamide. After the dye had circulated for 2 hours, the chest cavity was opened, and the rats were perfused through the left ventricle with 1% paraformaldehyde in citrate buffer (0.05 M, pH 3.5) at a physiological pressure of 120 mm Hg. The retinas were then carefully dissected under an operating microscope. After measurement of the retinal weight, Evans blue dye was extracted by incubating each retina in 0.180 ml of formamide for 18 hours at 70° C. The extract was ultracentrifuged at a speed of 14,000 rpm for 60 minutes at 25° C. Sixty microliters of the supernatant was used for spectrophotometric measurement at 620 nm and 740 nm. The background-subtracted absorbance was determined by measuring each sample at 620 nm (the absorbance maximum for Evans blue dye in formamide) and 740 nm (the absorbance minimum). The concentration of dye in the extracts was calculated from a standard curve of Evans blue dye in formamide. Blood-retinal barrier breakdown was calculated as previously described (Qaum et al (2002) supra, Xu et al. (2001) supra). Briefly, as mentioned, the optical density of the formamide containing tissue-extracted Evans Blue dye and that of the animals' plasma were measured at two different wavelengths (620 and 740 nm). The values were then inserted into the following equation. [formula] Results were expressed as a percentage of the value in control eyes. As used through each of Examples 1 -12, the units for results from the EB technique are μl plasma/g retina/h. Ex Vivo Quantification of Retinal Leukostasis

Molecule | leukocyte adhesion as a percentage of leukocyte adhesion in the contralateral PBS-injected eye ([1]; 24 hours after 50 ng VEGF, aprotinin 50,000 KIU i.v. 1 hour before, 8 and 16 hours after) | fold increase in total number of leukocytes adherent to the retina vessels compared to PBS-injected eyes ([1]; intravitreal 50 ng VEGF, 24 hours post injection) | anticipated release of AZ from leukocytes [2] | TEER after 6 hours until 24 hours after treatment [3] | TEER up to 6 hours after treatment [3] | TEER, first 30 minutes after incubation [3] | BRB breakdown as percentage of the value in control eyes [4] | Evans Blue retinal leakage in VEGF-injected eye ([4]; PBS eye 9.6±1.4 (VEGF alone), 5.4±1.4 (with aprotinin)) | fold increase in retinal vascular leakage compared to the PBS injected eye ([4]; aprotinin i.v. 50,000KIU every eight hours, antibody 1 μg intravitreal 6 hours after VEGF) | retinal distribution of intravenously injected 20 kDa FITC-conjugated dextran [5] | time course of increase in retinal vascular permeability [6] | Evans Blue retinal leakage ([6]; 3 to 5 hours post injection, PBS eye 8.3±1.4) | fold increase in Evans Blue retinal leakage compared to control eyes ([6]; 3 to 5 hours post injection, n=11) | Evans Blue retinal leakage ([6]; 24 hours post-injection, PBS eye 8.7±1.8) | fold increase in Evans Blue retinal leakage compared to control eyes ([6]; 24 hours post-injection, n=6) | fold increase in Evans Blue retinal leakage compared to control eyes ([6]; approximately one to three hours after injection, n=8) | Evans Blue retinal leakage ([6]; one to three hours after injection, PBS eye 5.8±1.4)
VEGF | 308% | 3 fold | induces the release of AZ from leukocytes | showed no sign of recovery in the TEER values | remained at the reduced levels until 6 hours after treatment | rapid and significant drop of resistance | 320%±74 | 29.7±7.5 μl plasma/g retina/h | 3.2±0.74 fold | fluorescence diffusely distributed throughout the retinal tissues at both intraluminal and extravascular locations | – | – | – | – | – | – | –
azurocidin (protein, UniProt P20160 27-248, looked up, human neutrophil azurocidin) Azurocidin: IVGGRKARPRQFPFLASIQNQGRHFCGGALIHARFVMTAASCFQSQNPGVSTVVLGAYDLRRRERQSRQTFSISSMSENGYDPQQNLNDLMLLQLDREANLTSSVTILPLPLQNATVEAGTRCQVAGWGSQRSGGRLSRFPRFVNVTVTPEDQCRPNNVCTGVLTRRGGICNGDGGTPLVCEGLAHGVASFSLGPCGRGPDFFTRVALFRDWIDGVLNNPGP | – | – | – | started to recover to normal levels and reached higher values than untreated control | remained at the reduced levels until 6 hours after treatment | rapid and significant drop of resistance | – | – | – | – | with a peak one to three hours post administration | 21±2.3 μl plasma/g retina/h | 2.7 fold | 16.5±2.8 μl plasma/g retina/h | 1.7 fold | 7.7 fold | 45±17 μl plasma/g retina/h
